pKi: −log10 of the molar value.
Each compound was assayed against T1, Alpha-2C adrenergic receptor (Rattus norvegicus, UniProt P22086).
T1 sequence (P22086 whole entry): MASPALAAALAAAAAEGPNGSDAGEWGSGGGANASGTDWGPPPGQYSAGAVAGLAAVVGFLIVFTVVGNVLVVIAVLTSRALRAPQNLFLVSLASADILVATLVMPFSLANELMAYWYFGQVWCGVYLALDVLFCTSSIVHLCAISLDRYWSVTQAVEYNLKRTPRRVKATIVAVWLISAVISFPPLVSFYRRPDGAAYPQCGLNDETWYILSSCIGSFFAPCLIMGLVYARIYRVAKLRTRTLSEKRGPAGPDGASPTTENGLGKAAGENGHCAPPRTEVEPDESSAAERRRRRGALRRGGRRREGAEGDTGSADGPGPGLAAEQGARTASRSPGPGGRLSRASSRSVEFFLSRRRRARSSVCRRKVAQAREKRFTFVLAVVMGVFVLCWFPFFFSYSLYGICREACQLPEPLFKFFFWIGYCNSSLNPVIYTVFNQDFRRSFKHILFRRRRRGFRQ
Work on `Nc1ncnc2c1ncn2[C@@H]1O[C@H](COP(=O)(O)OP(=O)(O)OP(=O)(O)O)[C@@H](O)[C@H]1O` yielded a pKi of 8.51. `[N-]=[N+]=Nc1ccc(NP(=O)(O)OP(=O)(O)OP(=O)(O)OC[C@H]2O[C@@H](n3cnc4c(=O)[nH]c(N)nc43)[C@H](O)[C@@H]2O)cc1` [CAS_59803-98-4] showed a pKi of 8.80. Compound `Nc1nc2c(ncn2[C@@H]2O[C@H](COP(=O)(O)OP(=O)(O)NP(=O)(O)O)[C@@H](O)[C@H]2O)c(=O)[nH]1` [CAS_59803-98-4] has a pKi of 8.21.

From BindingDB's records for doi:10.1016/s0165-0270(00)00358-7 (University of Nebraska, 2001)
